{"source": "paper PMC11206987", "about": "“Investigation of the Efficacy of Benzylidene-3-methyl-2-thioxothiazolidin-4-one Analogs with Antioxidant Activities on the Inhibition of Mushroom and Mammal Tyrosinases” (Molecules, 2024)", "key": {"[1]": {"target": "mushroom tyrosinase", "experiment": "Mushroom tyrosinase inhibition assay (dopachrome, 475 nm)", "format": "biochemical", "conditions": "mushroom tyrosinase", "experimental": "The ability of the BMTTZD analogs to inhibit mushroom tyrosinase was evaluated in the presence of L-dopa and L-tyrosine as previously described."}, "[2]": {"test_system": "B16F10 cells", "experiment": "Melanin content assay in B16F10 cells", "format": "cell-based, murine", "conditions": "20 µM; IBMX plus α-MSH (raised melanin 4.4-fold); 72 h", "experimental": "We examined whether the ability of analogs 1, 3, and 5 to inhibit intracellular tyrosinase activity could affect intracellular melanin levels. B16F10 cells were utilized as mammalian cells. IBMX and α-MSH were used at 200 µM and 1 µM, respectively, to increase melanin biosynthesis. […] For the intracellular melanin content determination, the absorbance at 405 nm was evaluated after 72 h of incubation.\nThe effect of BMTTZD analogs on melanin biosynthesis was investigated following a previously described method. A 6-well microplate containing 1 × 10^5 B16F10 cells/well was cultivated for 23 h under conditions identical to those of the cell culture. […] After exposure to IBMX and α-MSH, B16F10 cells were cultivated for 72 h at 37 °C. The cells were rinsed 2 times with PBS, treated with 1N-NaOH aqueous solution (100 µL), and cultivated at 60 °C for 1 h. The lysates were moved to a microplate. At 405 nm, the well absorbance was measured utilizing a VersaMax® reader. Each experiment was carried out three times independently."}, "[3]": {"conditions": "substrate L-dopa, read-out: IC50 (Mean ± SEM, µM) L-Dopa"}, "[4]": {"conditions": "substrate L-tyrosine, read-out: IC50 (Mean ± SEM, µM) L-Tyrosine"}}, "note": "Like-named read-outs stand apart in the source and are kept apart here."}
{"smiles": "CN1C(=O)/C(=C/c2cc(Br)c(O)c(Br)c2)SC1=S", "note": "[Analog 8, (Z)-5-(3,5-Dibromo-4-hydroxybenzylidene)-3-methyl-2-thioxothiazolidin-4-one]", "values": [{"measurement": "IC50", "setting": "[1]; [3]", "result": "> 200", "unit": "µM"}, {"measurement": "IC50", "setting": "[1]; [4]", "result": "> 200", "unit": "µM"}]}
{"smiles": "COc1cc(/C=C2\\SC(=S)N(C)C2=O)cc(OC)c1O", "note": "[Analog 6, (Z)-5-(4-Hydroxy-3,5-dimethoxybenzylidene)-3-methyl-2-thioxothiazolidin-4-one]", "values": [{"measurement": "IC50", "setting": "[1]; [3]", "result": "> 200", "unit": "µM"}, {"measurement": "IC50", "setting": "[1]; [4]", "result": "57.4 ± 10.9", "unit": "µM"}]}
{"smiles": "O=c1cc(CO)occ1O", "note": "[Kojic acid, reference compound]", "values": [{"measurement": "decrease of intracellular melanin contents", "setting": "[2]", "result": 3.3, "unit": "fold"}]}
{"smiles": "CN1C(=O)/C(=C/c2ccc(O)c(Br)c2)SC1=S", "note": "[Analog 7, (Z)-5-(3-Bromo-4-hydroxybenzylidene)-3-methyl-2-thioxothiazolidin-4-one]", "values": [{"measurement": "IC50", "setting": "[1]; [3]", "result": "> 200", "unit": "µM"}, {"measurement": "IC50", "setting": "[1]; [4]", "result": "33.2 ± 8.42", "unit": "µM"}]}
